In patent publication US6177592A, “Compounds” (priority 1997, dated 2001):

Key:
[1] = tested on: Bacillus subtilis IFO 3021; experiment: Antibacterial activity, viable cell numbers; type: cell-based
Procedure: Bacillus subtilis IFO 3021 was incubated (by mans of a seed culture) overnight in a sensitive bouillon medium (manufactured by Nissui). Absorbance at 600 nm was measured and viable cell numbers were calculated from the previously-prepared calibration curve showing the relation between the viable cell numbers and absorbance at 600 nm. The seed-cultured liquid was diluted with a fresh sensitive bouillon medium to make the concentration 1×10^6 cells/ml and each 180 μl thereof was placed in each well of the 96-well microtiter plate. Each 20 μl of aqueous solution of GM (4 mg/ml or 2 mg/ml) or water was added to each well followed by allowing to a stationary culture at 37° C. for one night (main incubation) In the meanwhile, a part of the seed culture liquid was diluted with sterilized water, spread onto a sensitive bouillon agar plate medium and incubated at 37° C. for one night and the colonies were counted to measure the precise viable cell numbers.
The cultured liquid in each of the wells was diluted with sterilized water, spread onto a sensitive bouillon agar plate medium and incubated at 37° C. for one night and the colonies were counter to measure the viable cell numbers.

[2] = Blood sugar, insulin and lipid in KK-Ay mice; type: in vivo, mouse (KK-A^y)
Procedure: KK-A^y Mice (male; four weeks age) were purchased from Clea Japan and, after breeding at our end until ten weeks age, GM was orally administered for 21 days and its influence on sugar, insulin and lipid in blood was investigated. Doses of GM were 30, 100 and 300 mg/kg.
Incidentally, the animals were grouped into four (each group consisting of ten animals) and the four groups were administered with physiological saline solution (5 ml/kg) or 30, 100 or 300 mg/5 ml/kg of GM. Each test substance was orally administered once daily for 21 days and, on the final day of administration, the animals were anesthetized with ether after four hours from the administration of the test substance and blood was collected from artery of lower abdomen. Insulin in serum was measured by an enzyme-immunoassay (commercially available kit: Glazym Insulin-EIATEST,manufactured by Wako Pure Chemicals). Sugar, triglycerides and free fatty acids in serum were measured using an automatic analyzer (type 7070, manufactured by Hitachi) by a hexonase-G6PDH method, a GPO.cndot.DAOS method and an ACS.cndot.ACOD method, respectively. Total cholesterol in serum was measured using an automatic analyzer (type 7070, manufactured by Hitachi) by a cholesterol-oxidase, DAOS method.

[3] = tested on: heat shock protein of 70 kDa (HSP70); experiment: Induction of heat shock protein of 70 kDa in HL-60; type: cell-based, human; parameters: key to Induction of Heat Shock Protein: -: no induction was noted; ±: the induction was slight; indicates degree of intensity of induction and the more the numbers of "+", the more the intensity of induction; ++: the more the numbers of "+", the more the intensity of induction; +++: the more the numbers of "+", the more the intensity of induction; conditions: for action of inducing the heat shock protein (in words): Example 14, compared with GM and CM
Procedure: (1) An RPMI 1640 medium (5 ml) containing 10% of fetal bovine serum which contained 2×10^5 cells/ml of HL-60 (ATCC CCL-24C) was placed in each well of a six-well plate, incubated at 37° C. for 24 hours in the presence of 5% of CO2, then GM was added thereto to make its final concentration 0, 0.5, 1.0, 3.0, 5.0, 10.0 or 20.0 μM and the incubation was further continued for eight hours more.
After completion of the incubation, cell numbers were counted and the cells were recovered by centrifugation and washed with PBS to prepare GM-treated cells. In the meanwhile, cells which were heated at 45° C. for ten minutes followed by subjecting to the same incubation were prepared as well.
The cells treated as such were subjected to an SDS-PAGE by a method mentioned in "Molecular Cloning" [Cold Spring Harbor Laboratory Press, (1989)]. The treated cells were suspended in an SDS-PAGE sample buffer to make the concentration 2.5×10^6 cells/ml, the resulting cell suspension was treated at 100° C. for ten minutes and each 5 μl thereof was applied to two sheets of SDS-PAGE gels (5% stacking gel; 10% separation gel) to conduct an electrophoresis. One of the gels was stained with Coomassie Brilliant Blue R250 while another gel was subjected to a blotting to a polyvinylidene difluoride transfer membrane (Immobilon™, manufactured by Millipore, catalog no. IPVH000-10). The membrane was subjected to a blocking at 4° C. for one night with Block Ace (manufactured by Dainippon Pharmaceutical; catalog no. UK-B25).
The blocked membrane was made to react with monoclonal antibody HSP 72/73 (Ab-1) (manufactured by Oncogene Research Products, catalog no. HSP01) which specifically reacted with heat-induced heat shock protein of 70 kDa and washed with TBS containing 0.05% of Tween 20 followed by further washing with TBS. After that, it was made to react with peroxidase-compounded secondary antibody HRP-Rabbit Anti-Mouse IgG (H+L) (manufactured by Zymed Laboratories, catalog no. 61-6520) and washed by the same manner as in the above operation. The membranes which were treated with primary and secondary antibodies as such were made to react with Renaissance™ (a chemiluiminor reagent manufactured by Dupont NEN, catalog no. NEL-100) and photosensitized with an X-ray film to detect the induction of heat shock protein of 70 kDa.
(2) CM was added to the incubated cells to make its final concentration 0, 10, 20, 30, 40 or 50 μM and expression of HSP70 was measured by the method as mentioned in Example 14-(1).

[4] = 30, 100, 300 mg/kg oral, 21 days

| Structure (SMILES) | antibacterial activity (in words) ([1]; compared with GM) | triglycerides in serum [2, 4] | Induction of Heat Shock Protein ([3]; 10 μM CM) | Induction of Heat Shock Protein ([3]; 20 μM CM) | Induction of Heat Shock Protein ([3]; 30 μM CM) | Induction of Heat Shock Protein ([3]; 40 μM CM) | Induction of Heat Shock Protein ([3]; 50 μM CM) | action of inducing the heat shock protein (in words) [3] | viable cell numbers ([1]; 400 μg/ml final, one night at 37° C., water 1.3×10^8) | blood sugar [2, 4] | free fatty acids in serum [2, 4] | insulin in serum [2, 4] | total cholesterol in serum [2, 4] | effect of lowering blood sugar, insulin and lipid ([2]; Example 13, summary) | Induction of Heat Shock Protein ([3]; 0.5 μM GM, eight hours) | Induction of Heat Shock Protein ([3]; 1.0 μM GM, eight hours) | Induction of Heat Shock Protein ([3]; 3.0 μM GM, eight hours) | Induction of Heat Shock Protein ([3]; 5.0 μM GM, eight hours) | Induction of Heat Shock Protein ([3]; 10 μM GM, eight hours) | Induction of Heat Shock Protein ([3]; 20 μM GM, eight hours) |
| --- | --- | --- | --- | --- | --- | --- | --- | --- | --- | --- | --- | --- | --- | --- | --- | --- | --- | --- | --- | --- |
| N[C@@H](CSC1C=C(O)C(=O)C1)C(=O)O (stereo partly drawn) [CM] | same results | decreased | + | ++ | ++ | + | + | action of inducing the heat shock protein | – | – | – | – | – | – | – | – | – | – | – | – |
| N[C@@H](CCC(=O)N[C@@H](CSC1C=C(O)C(=O)C1)C(=O)NCC(=O)O)C(=O)O (stereo partly drawn) [GM, 2-hydroxy-4-glutathion-S-yl-2-cyclopenten-1-one] | – | – | – | – | – | – | – | action of inducing the heat shock protein | 4.4×10^7 cells/ml | decreased in each of the groups administered with GM | decreased | decreased in each of the groups administered with GM | de creased | effect of lowering blood sugar, insulin and lipid | ± | ± | + | + | ++ | ++ |
